# Earlier results, collected in publication PMC5344293, “A phase 1 dose-escalation and expansion study of binimetinib (MEK162), a potent and selective oral MEK1/2 inhibitor” (British Journal of Cancer, 2017).
# Read-outs that look alike come from different tables or passages of the source.
# Experiments:
# non-melanoma tumours [1] = test system: non-melanoma tumours; set-up: method as in Rosen et al, 2011; details: ref Rosen et al, 2011; cited from earlier work
# non-melanoma tumours [2] = test system: non-melanoma tumours; set-up: method as in Delord et al, 2010; details: ref Delord et al, 2010; cited from earlier work
# [3] = test system: metastatic biliary cancer; set-up: method as in Bekaii-Saab et al, 2011; details: ref Bekaii-Saab et al, 2011; cited from earlier work
# non-melanoma tumours [4] = test system: non-melanoma tumours; set-up: method as in Adjei et al, 2008; details: ref Adjei et al, 2008; cited from earlier work
# advanced solid tumours = test system: advanced solid tumours; set-up: method as in Infante et al, 2012; details: ref Infante et al, 2012, cited from earlier work
structure (smiles),measurement,setting,value
O=C(c1ccc(F)c(F)c1Nc1ccc(I)cc1F)N1CC(O)([C@@H]2CCCCN2)C1 [cobimetinib],Objective responses to single-agent treatment in non-melanoma patients,non-melanoma tumours [1],no objective responses
O=C(NC[C@H](O)CO)c1ccncc1Nc1ccc(I)cc1F [pimasertib],Objective responses to single-agent treatment in non-melanoma patients,non-melanoma tumours [2],no objective responses
Cn1cnc2c(F)c(Nc3ccc(Br)cc3Cl)c(C(=O)NOCCO)cc21 [selumetinib],"Objective response, patients",[3],12%
same,Objective responses to single-agent treatment in non-melanoma patients,non-melanoma tumours [4],no objective responses
CC(=O)Nc1cccc(-n2c(=O)n(C3CC3)c(=O)c3c(Nc4ccc(I)cc4F)n(C)c(=O)c(C)c32)c1 [trametinib],Non-melanoma patients with objective responses,advanced solid tumours; NSCLC and pancreas cancer (2 patients each),4 patients
same,Patients with objective responses,advanced solid tumours; all tumour types,21 patients
